Source: patent US20140221301A1, “COMBINATION TREATMENT FOR CANCER” (priority 2011, published 2014)

Legend:
Format in all cases: cell-based, human
TEX cells = assay: Chemical screen, MTS assay, TEX cells; conditions: 10 μM, 72 hours
Description: To identify compounds active against leukemia stem cells, a library of drugs (n=312) with well-characterized pharmacokinetics and toxicology and a wide therapeutic window was compiled. This library was then screened to identify agents that reduced the viability of TEX and M9-ENL1 cells. TEX and M9-ENL1 cells were derived from lineage-depleted human cord blood cells (Lin-CB) transduced with TLS-ERG or MLL-ENL oncogenes, respectively, and, as shown previously, display properties of stem cells including hierarchal differentiation and marrow repopulation^14, 15. In this screen, TEX and M9-ENL1 cells were treated with aliquots of the compounds. After incubation, cell growth and viability was measured by the MTS assay. From this screen, tigecycline was identified.
TEX, and M9-ENL-1 cells were seeded into 96-well polystyrene tissue culture plates (Corning). […] 72 (TEX) and 48 (M9-ENL-1) hours after incubation, cell growth and viability was measured by MTS assay. […]
Cell growth and viability was assessed by the MTS assay (Promega, Madison, Wis.) according to the manufacturer's instructions. Apoptosis and cell death was measured by Annexin V-fluroscein isothiocyanate (FITC; Biovision Research Products, Mountain View, Calif.), propidium iodide staining and flow cytometry according to the manufacturer's instructions and as previously described^30. […]

[1] = test system: Cox-1, Cox-2 (mitochondrially-translated subunits I and II) over Cox-4; assay: Immunoblotting of cytochrome C oxidase subunits in leukemia cells; conditions: TEX, OCI-AML2, two AML patients; 2.5 μM and 5 μM, 36 and 48 hours
Description: FIG. 4. […] (A) Cells from TEX, OCI-AML2 and two primary AML patients were treated with increasing concentrations (2.5 μM and 5 μM) of tigecycline for 36 and 48 hours of tigecycline. Total proteins were extracted and analyzed by western blotting for Cox-1, Cox-2, Cox-4, grp78, XIAP, actin and tubulin. (B) TEX and AML patient cells were treated with increasing concentrations (2.5 μM and 5 μM) of tigecycline. Cox-1, Cox-2, and Cox-4 mRNA expression relative 18S was determined by quantitative RT-PCR. Data is shown as mean±SD. (C) TEX cells were treated with increasing concentrations of tigecycline and chloramphenicol (CAP) for 72 hours. Complex I, II and IV enzyme activity relative to citrate synthase activity was determined as described in materials and methods. (D) Cells from TEX, primary AML patients, and normal donors were treated with increasing concentrations of tigecycline. Mitochondrial membrane potential (ΔΨ) was determined by staining cells with JC-1 dye, and flow cytometry analysis (Red/Green ratio). Reactive oxygen species generation (ROS) was determined by staining with h2-DCFDA and Dihydroethidium (DHE).
Total cell lysates were prepared from cells as described previously^32. […] Protein concentrations were measured by the DC Protein assay. […]

[2] = test system: TEX cells and primary AML samples; assay: Mitochondrial membrane potential, JC-1, leukemia cells; conditions: 5 μM, times preceding onset of cell death
Description: FIG. 4. Tigecycline decreases mitochondrial Cox-1 protein levels in TEX cells. (A) Cells from TEX, OCI-AML2 and two primary AML patients were treated with increasing concentrations (2.5 μM and 5 μM) of tigecycline for 36 and 48 hours of tigecycline. Total proteins were extracted and analyzed by western blotting for Cox-1, Cox-2, Cox-4, grp78, XIAP, actin and tubulin. (B) TEX and AML patient cells were treated with increasing concentrations (2.5 μM and 5 μM) of tigecycline. Cox-1, Cox-2, and Cox-4 mRNA expression relative 18S was determined by quantitative RT-PCR. Data is shown as mean±SD. […] Complex I, II and IV enzyme activity relative to citrate synthase activity was determined as described in materials and methods. […] Mitochondrial membrane potential (ΔΨ) was determined by staining cells with JC-1 dye, and flow cytometry analysis (Red/Green ratio). Reactive oxygen species generation (ROS) was determined by staining with h2-DCFDA and Dihydroethidium (DHE).
To measure mitochondrial membrane potential, cells were treated with tigecycline similarly as described above and then washed twice with PBS and incubated with 5 μM of 5,5′,6,6′-tetrachloro-1,1′,3,3′-tetraethyl benzimidazolylcarbocyanine iodide (JC-1, Sigma-Aldrich) for 20 minutes at 37° C. Each sample was then washed twice with 1 mL PBS and resuspended in 500 μL PBS prior to being read on a BD FACSCalibur. […]

Complexes I and IV = assay: Respiratory chain enzyme activity relative to citrate synthase, Complexes I and IV; conditions: TEX cells, 2.5 μM and 5 μM, 72 hours
Description: FIG. 4. Tigecycline decreases mitochondrial Cox-1 protein levels in TEX cells. (A) Cells from TEX, OCI-AML2 and two primary AML patients were treated with increasing concentrations (2.5 μM and 5 μM) of tigecycline for 36 and 48 hours of tigecycline. Total proteins were extracted and analyzed by western blotting for Cox-1, Cox-2, Cox-4, grp78, XIAP, actin and tubulin. (B) TEX and AML patient cells were treated with increasing concentrations (2.5 μM and 5 μM) of tigecycline. Cox-1, Cox-2, and Cox-4 mRNA expression relative 18S was determined by quantitative RT-PCR. Data is shown as mean±SD. (C) TEX cells were treated with increasing concentrations of tigecycline and chloramphenicol (CAP) for 72 hours. Complex I, II and IV enzyme activity relative to citrate synthase activity was determined as described in materials and methods. […] Mitochondrial membrane potential (ΔΨ) was determined by staining cells with JC-1 dye, and flow cytometry analysis (Red/Green ratio). Reactive oxygen species generation (ROS) was determined by staining with h2-DCFDA and Dihydroethidium (DHE).
The effect of tigecycline treatment on enzyme activity of the respiratory chain complexes relative to the mitochondrial non-respiratory chain enzyme citrate synthase was examined. TEX leukemia cells were treated with tigecycline for […] and then respiratory chain enzyme relative to citrate synthase activity was analyzed. […]

CN(C)c1cc(NC(=O)CNC(C)(C)C)c(O)c2c1C[C@H]1C[C@H]3[C@H](N(C)C)C(O)=C(C(N)=O)C(=O)[C@@]3(O)C(O)=C1C2=O [tigecycline]
cell growth and viability in screen (TEX cells): cell growth inhibitor | protein level of mitochondrially-translated subunits I and II over nuclear-translated subunit IV [1]: preferential decrease | mitochondrial membrane potential [2]: decreased | enzyme activities of Complexes I and IV relative to citrate synthase (Complexes I and IV): decreased
